The values that follow come from patent publication US20230365533A1, “BICYCLOHEPTANE PYRROLIDINE OREXIN RECEPTOR AGONISTS” (MERCK SHARP & DOHME CORP., priority 2021, published 2023).

One assay has as its target T1, human OX2R (Homo sapiens, UniProt O43614).
T1 construct: expressed in transfected cells; host or cells: CHO (Chinese hamster ovary) cells, grown under G418 selection
T1 sequence (O43614 1-444): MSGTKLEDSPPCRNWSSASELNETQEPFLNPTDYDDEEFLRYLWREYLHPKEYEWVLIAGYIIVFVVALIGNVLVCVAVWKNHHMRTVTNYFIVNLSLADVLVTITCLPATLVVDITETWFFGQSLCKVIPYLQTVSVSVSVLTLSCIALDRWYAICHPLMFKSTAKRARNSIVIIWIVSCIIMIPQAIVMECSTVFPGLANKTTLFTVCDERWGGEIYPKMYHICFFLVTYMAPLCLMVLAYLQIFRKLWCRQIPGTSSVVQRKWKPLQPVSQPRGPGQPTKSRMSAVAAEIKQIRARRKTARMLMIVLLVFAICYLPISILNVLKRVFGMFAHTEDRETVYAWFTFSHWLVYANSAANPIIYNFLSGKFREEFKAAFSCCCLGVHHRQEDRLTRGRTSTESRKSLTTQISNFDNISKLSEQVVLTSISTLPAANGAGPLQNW
Nature of the assay: IPOne (IP-1) orexin receptor agonist assay in CHO cells expressing human OX2R. As to conditions: CHO, percent of mean max effect of a reference compound at 1 uM with 100% activity vs Orexin A, human OX2R. Format: cell-based. The gist of the method:
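CHO cells with human OX2R treated 2 h at 37 °C with 10-point ½-log compound dilutions in stimulation buffer; IP-1 accumulation read by HTRF (665/620 nm) after 60 min detection. EC50 from four-parameter fit; % effect versus a 1 uM reference agonist.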
On to `COC(=O)N1[C@H](C)C[C@H](NS(=O)(=O)N(C)C)[C@@H]1COC1CCC2(c3ncc(F)cn3)CC2C1` (stereo partly drawn) [Example 169, methyl (2R,3S,5R)-3-((N,N-dimethylsulfamoyl)amino)-2-(((6-(5-fluoropyrimidin-2-yl)bicyclo[4.1.0]heptan-3-yl)oxy)methyl)-5-methylpyrrolidine-1-carboxylate], for which the Emax came out at 100%.

The same assay, now with this note: IPOne assay, CHO cells expressing human OX2R, 2 hours incubation; read-out: hoX2R_IP IC50.
Consider `COC(=O)N1[C@H](C)C[C@H](NS(C)(=O)=O)[C@@H]1COC1CCC2(c3ncc(Cl)cn3)CC2C1` (stereo partly drawn) [Example 140, methyl (2R,3S,5R)-2-(((6-(5-chloropyrimidin-2-yl)bicyclo[4.1.0]heptan-3-yl)oxy)methyl)-5-methyl-3-(methylsulfonamido)pyrrolidine-1-carboxylate], for which the IC50 stood at 11.1 nM.
On the same count and under the same terms, in the case of `COC(=O)N1[C@H](C)C[C@H](NS(C)(=O)=O)[C@@H]1COC1CCC2(c3nccs3)CC2C1` (stereo partly drawn) [Example 149, methyl (2R,3S,5R)-5-methyl-3-(methylsulfonamido)-2-(((6-(thiazol-2-yl)bicyclo[4.1.0]heptan-3-yl)oxy)methyl)pyrrolidine-1-carboxylate] it was 179 nM; in that of `CC(C)OC(=O)N1[C@H](C)C[C@H](NS(C)(=O)=O)[C@@H]1COC1CCC2(c3ncc(Cl)cn3)CC2C1` (stereo partly drawn) [Example 154, isopropyl (2R,3S,5R)-2-(((6-(5-chloropyrimidin-2-yl)bicyclo[4.1.0]heptan-3-yl)oxy)methyl)-5-methyl-3-(methylsulfonamido)pyrrolidine-1-carboxylate], 16.9 nM.
On the same count and under the same terms, the value for `COC(=O)N1[C@H](C)C[C@H](NS(C)(=O)=O)[C@@H]1COC1CCC2(c3ncc(C)cn3)CC2C1` (stereo partly drawn) [Example 159, methyl (2R,3S,5R)-5-methyl-2-(((6-(5-methylpyrimidin-2-yl)bicyclo[4.1.0]heptan-3-yl)oxy)methyl)-3-(methylsulfonamido)pyrrolidine-1-carboxylate] was 79.4 nM.
On the same count and under the same terms, in the case of `CC(C)OC(=O)N1[C@H](C)C[C@H](NS(=O)(=O)N(C)C)[C@@H]1COC1CCC2(c3ncc(F)cn3)CC2C1` (stereo partly drawn) [Example 164, isopropyl (2R,3S,5R)-3-((N,N-dimethylsulfamoyl)amino)-2-(((6-(5-fluoropyrimidin-2-yl)bicyclo[4.1.0]heptan-3-yl)oxy)methyl)-5-methylpyrrolidine-1-carboxylate] it was 2.6 nM.
Consider `CC(C)OC(=O)N1[C@H](C)C[C@H](NS(=O)(=O)N(C)C)[C@@H]1COC1CCC2(c3ncccn3)CC2C1` (stereo partly drawn) [Example 174, isopropyl (2R,3S,5R)-3-((N,N-dimethylsulfamoyl)amino)-5-methyl-2-(((6-(pyrimidin-2-yl)bicyclo[4.1.0]heptan-3-yl)oxy)methyl)pyrrolidine-1-carboxylate], for which the IC50 came out at 7.5 nM.
Take `COC(=O)N1[C@@H]2CCC[C@@H]2[C@H](NS(C)(=O)=O)[C@@H]1COC1CCC2(c3ncccn3)CC2C1` (stereo partly drawn) [Example 175, methyl (2R,3S,3aS,6aR)-3-(methylsulfonamido)-2-(((6-(pyrimidin-2-yl)bicyclo[4.1.0]heptan-3-yl)oxy)methyl)hexahydrocyclopenta[b]pyrrole-1(2H)-carboxylate]: the half-inhibitory concentration (IC50) is 22.6 nM.
Same read-out and setting: the value for `COC(=O)N1CC[C@H](NS(C)(=O)=O)[C@@H]1COC1CCC2(c3ncccn3)CC2C1` (stereo partly drawn) [Example 185, methyl (2R,3S)-3-(methylsulfonamido)-2-(((6-(pyrimidin-2-yl)bicyclo[4.1.0]heptan-3-yl)oxy)methyl)pyrrolidine-1-carboxylate] was 1620 nM.
